Values after ≈ are worked out from the molar mass of the structure shown. Where two headings read alike, the source gives them in different places.
Tests used:
Assay type in all cases: cell-based
[1] = tested on: Clostridium difficile JCM1296 strain; assay: microbe, parasite or virus in culture; details: Clostridioides difficile, JCM1296, read-out: MIC Clostridium difficile JCM1296
[2] = tested on: Staphylococcus aureus Smith strain; assay: MIC for Staphylococcus aureus Smith strain; details: read-out: MIC Straphyrococcus aureus Smith
[3] = tested on: Escherichia coli BE1121 strain; assay: MIC for Escherichia coli BE1121 strain; details: Escherichia coli, BE1121STRAIN, read-out: MIC Escherichia coli BE1121
[4] = tested on: Escherichia coli K-12 strain; assay: MIC for Escherichia coli K-12 strain; details: Escherichia coli, K12STRAIN, read-out: MIC Escherichia coli K12
[5] = tested on: Enterococcus faecalis NCTC12201 strain (vancomycin-resistant Enterococcus: VRE); assay: MIC for Enterococcus faecalis NCTC12201 strain (VRE); details: read-out: MIC Enterococcus faecalis NCTC 12201 (VRE)
[6] = tested on: Staphylococcus aureus 209P strain; assay: MIC for Staphylococcus aureus 209P strain; details: Staphylococcus aureus, read-out: MIC Straphyrococcus aureus 209P
[7] = tested on: Staphylococcus aureus MRSA No. 17 (methicillin-resistant Staphylococcus aureus: MRSA); assay: MIC for Staphylococcus aureus MRSA No. 17; details: read-out: MIC Straphyrococcus aureus MRSA No. 17 (MRSA)
[8] = tested on: Clostridium perfringens PB6K strain; assay: microbe, parasite or virus in culture; details: Clostridium perfringens, PB6KSTRAIN, read-out: MIC Clostridium perfringens PB6K, PB6K strain; CD medium, 37° C. overnight, 10% CO2-containing anaerobic conditions
[9] = tested on: Enterococcus faecalis 5038 strain; assay: MIC for Enterococcus faecalis 5038 strain; details: read-out: MIC Enterococcus faecalis 5038
[10] = Smith strain, regular bouillon medium, 37° C. overnight, turbidity
[11] = BE1121 strain, regular bouillon medium, 37° C. overnight, turbidity
[12] = K-12 strain, regular bouillon medium, 37° C. overnight, turbidity
[13] = NCTC12201 strain (VRE), Heart Infusion Broth medium, 37° C. overnight, turbidity
[14] = 209P strain, regular bouillon medium, 37° C. overnight, turbidity
[15] = MRSA No. 17, regular bouillon medium, 37° C. overnight, turbidity
[16] = 5038 strain, Heart Infusion Broth medium, 37° C. overnight, turbidity

SMILES	MIC [1] [µg/mL]	MIC [2, 10] [µg/mL]	MIC [3, 11] [µg/mL]	MIC [4, 12] [µg/mL]	MIC [5, 13] [µg/mL]	MIC [6, 14] [µg/mL]	MIC [7, 15] [µg/mL]	MIC [8] [µg/mL]	MIC [9, 16] [µg/mL]	MIC [2] [µg/mL]	MIC [5] [µg/mL]	MIC ([7]; MRSA) [µg/mL]	MIC ([9]; 5038STRAIN) [µg/mL]	MIC ([5]; NCTC12201|VRE) [µg/mL]	MIC [3] [µg/mL]	MIC [4] [µg/mL]	MIC ([6]; 209P) [µg/mL]
CCCCC1CCC(C(O)=C2C(=O)N(C(=O)Nc3ccccc3)c3ccccc32)CC1 (stereo not drawn) [A016, N-(phenylaminocarbonyl)-3-(4-butylcyclohexylcarbonyl)-2-oxyindole]	0.25 (≈ 0.597 µM)	4 (≈ 9.56 µM)	256 (≈ 612 µM)	256 (≈ 612 µM)	0.5 (≈ 1.19 µM)	128 (≈ 306 µM)	256 (≈ 612 µM)	4 (≈ 9.56 µM)	1 (≈ 2.39 µM)	–	–	–	–	–	–	–	–
CCCCc1ccc(COCC(=O)c2c(O)c3ccccc3oc2=O)cc1 [B024, 3-(4-butylphenylmethoxyl)acetyl-4-hydroxycoumarin]	0.25 (≈ 0.682 µM)	–	2 (≈ 5.46 µM)	256 (≈ 699 µM)	–	4 (≈ 10.9 µM)	–	1 (≈ 2.73 µM)	–	8 (≈ 21.8 µM)	2 (≈ 5.46 µM)	64 (≈ 175 µM)	2 (≈ 5.46 µM)	–	–	–	–
CCCCCCCCCCSCC(=O)c1c(O)c2cc(F)ccc2oc1=O [B027]	< 0.125	–	4 (≈ 10.1 µM)	256 (≈ 649 µM)	–	2 (≈ 5.07 µM)	–	0.25 (≈ 0.634 µM)	–	0.25 (≈ 0.634 µM)	–	1 (≈ 2.53 µM)	0.25 (≈ 0.634 µM)	< 0.125	–	–	–
CCCCCCCCCC(=O)NCC(O)=C1C(=O)N(C(=O)OC(C)(C)C)c2ccccc21 [A011, N-Boc-3-decanoylaminoacetyl-2-oxyindole]	2 (≈ 4.5 µM)	128 (≈ 288 µM)	128 (≈ 288 µM)	128 (≈ 288 µM)	256 (≈ 576 µM)	256 (≈ 576 µM)	256 (≈ 576 µM)	2 (≈ 4.5 µM)	256 (≈ 576 µM)	–	–	–	–	–	–	–	–
CC(C)[C@H]1CC[C@H](C)CC1OCC(=O)c1c(O)c2ccccc2oc1=O (stereo in doubt) [B006, 4-hydroxy-3-menthyloxyacetylcoumarin]	2 (≈ 5.58 µM)	1 (≈ 2.79 µM)	2 (≈ 5.58 µM)	128 (≈ 357 µM)	2 (≈ 5.58 µM)	1 (≈ 2.79 µM)	2 (≈ 5.58 µM)	1 (≈ 2.79 µM)	2 (≈ 5.58 µM)	–	–	–	–	–	–	–	–
CCCCC1CCC(C(O)=C2C(=O)N(C(=O)Nc3ccc(F)cc3)c3ccccc32)CC1 (stereo not drawn) [A043, N-(4-fluorophenylaminocarbonyl)-3-(4-butylcyclohexylcarbonyl)-2-oxyindole]	1 (≈ 2.29 µM)	1 (≈ 2.29 µM)	256 (≈ 586 µM)	256 (≈ 586 µM)	1 (≈ 2.29 µM)	256 (≈ 586 µM)	128 (≈ 293 µM)	4 (≈ 9.16 µM)	1 (≈ 2.29 µM)	–	–	–	–	–	–	–	–
CCCCCCCCCCOC(C)C(O)=C1C(=O)N(C(=O)Nc2ccccc2)c2ccccc21 (stereo not drawn) [A021, N-(phenylaminocarbonyl)-3-(2-decyloxypropionyl)-2-oxyindole]	1 (≈ 2.15 µM)	0.5 (≈ 1.08 µM)	256 (≈ 551 µM)	256 (≈ 551 µM)	0.5 (≈ 1.08 µM)	128 (≈ 276 µM)	256 (≈ 551 µM)	2 (≈ 4.3 µM)	0.5 (≈ 1.08 µM)	–	–	–	–	–	–	–	–
CCCCCCCCCC(=O)c1c(O)c2ccc(OC)cc2oc1=O [B001, 3-decanoyl-4-hydroxy-7-methoxycoumarin]	64 (≈ 185 µM)	128 (≈ 369 µM)	256 (≈ 739 µM)	256 (≈ 739 µM)	64 (≈ 185 µM)	256 (≈ 739 µM)	256 (≈ 739 µM)	64 (≈ 185 µM)	64 (≈ 185 µM)	–	–	–	–	–	–	–	–
CCCCCCCCCC(=O)N[C@@H](C)C(=O)c1c(O)c2ccccc2oc1=O [B011, 3-(2-decanoylaminopropionyl)-4-hydroxycoumarin]	2 (≈ 5.16 µM)	256 (≈ 661 µM)	256 (≈ 661 µM)	256 (≈ 661 µM)	256 (≈ 661 µM)	256 (≈ 661 µM)	256 (≈ 661 µM)	1 (≈ 2.58 µM)	256 (≈ 661 µM)	–	–	–	–	–	–	–	–
CCCCCCCCCCOCC(O)=C1C(=O)N(C(C)=O)c2ccc(Br)cc21 [A029, N-acetyl-5-bromo-3-decyloxyacetyl-2-oxyindole]	< 0.125	0.5 (≈ 1.11 µM)	128 (≈ 283 µM)	128 (≈ 283 µM)	–	128 (≈ 283 µM)	128 (≈ 283 µM)	< 0.125	0.25 (≈ 0.553 µM)	–	< 0.125	–	–	–	–	–	–
CCCCCCCCCCOC(C)C(O)=C1C(=O)N(C(C)=O)c2ccccc21 (stereo not drawn) [A018, N-acetyl-3-(2-decyloxypropionyl)-2-oxyindole]	256 (≈ 661 µM)	0.5 (≈ 1.29 µM)	–	–	0.5 (≈ 1.29 µM)	–	8 (≈ 20.6 µM)	256 (≈ 661 µM)	0.5 (≈ 1.29 µM)	–	–	–	–	–	< 0.125	256 (≈ 661 µM)	64 (≈ 165 µM)

— patent US9512075B2 (OKAYAMA UNIVERSITY, priority 2012, dated 2016)
